US20080207522A1, “Antimicrobial Peptides” (priority 2004, published 2008)

What was measured:
[1] = tested on: Pseudomonas aeruginosa strain H1001 fliC::luxCDABE; test: Luminescence-based assay for the non-cleaved (bound) peptides on cellulose membranes; format: cell-based; conditions: for Luminescence at the given time in minutes: 0 / Luminescence at the given time in minutes: 20 / Luminescence at the given time in minutes: 40 / Luminescence at the given time in minutes: 60 / Luminescence at the given time in minutes: 80 / Luminescence at the given time in minutes: 100 / Luminescence at the given time in minutes: 120 / Luminescence at the given time in minutes: 180 / Luminescence at the given time in minutes: 240: cellulose-bound peptide; for Luminescence at the given time in minutes: 0: 0 min; for Luminescence at the given time in minutes: 20: 20 min; for Luminescence at the given time in minutes: 40: 40 min; for Luminescence at the given time in minutes: 60: 60 min; for Luminescence at the given time in minutes: 80: 80 min; for Luminescence at the given time in minutes: 100: 100 min; for Luminescence at the given time in minutes: 120: 120 min; for Luminescence at the given time in minutes: 180: 180 min; for Luminescence at the given time in minutes: 240: 240 min; for Activity Class bound: uncleaved cellulose-bound peptides
Protocol: Luminescence-based MIC assay for the non-cleaved peptides on cellulose membranes. The peptide spots were punched out and transferred to a 96 well microtiter plate with a clear polystyrene bottom and opaque white polypropylene sides (PerkinElmer, Boston, USA). The spots were washed two times with 100% ethanol for 5 min and afterwards equilibrated five times with 100 mM Tris buffer pH 7.3 for 5 min. An overnight culture of Pseudomonas aeruginosa strain H1001 fliC::luxCDABE was diluted 1:50 in new MH medium and incubated at 37° C. to an OD600 of 0.35. This bacterial culture was diluted 1:25 into 10 mM Tris-HCl buffer, pH 7.3 containing 20 mM glucose. Fifty μl of this culture was added to all wells of the microtiter plate and incubated at 37° C. The luminescence of the strain produced by the ATP-dependent luciferase system was detected in a time dependent manner using a Tecan Spectra Fluor plus (Tecan, Austria). At the end of the experiment, the membranes were cleaned by washing the spots two times with 100% ethanol for five minutes. After removing the ethanol the membrane was air-dried.
(§1) Strains. For the killing assay a mini-Tn5-lux mutant in Pseudomonas aeruginosa H103 was used. The strain is called H1001 and contains a fliC::luxCDABE transcriptional fusion resulting in constitutive expression of luciferase. The bacterial strains used for the antimicrobial activity assays included Escherichia coli UB1005 (F-, nalA37, metB1), a wild-type Salmonella enterica ssp. Typhimurium (S. Typhimurium), wild-type Pseudomonas aeruginosa PAO1 strain H103, Enterococcus faecalis ATCC29212, Staphylococcus aureus ATCC25923, and a clinical isolate of Staphylococcus epidermidis obtained from Dr. D. Speert (Department of Medicine, University of British Columbia). Antifungal activity was tested using a lab isolate of Candida albicans obtained from Dr. B. Dill (Department of Microbiology and Immunology, University of British Columbia).
The same set of peptides, as well as the reversed sequence of Bac2A-R ([…]; SEQ ID NO: 2166), were synthesized on cellulose and left uncleaved. The production of light was initially compared in wells containing spots of Bac2A, Bac2A-R (with the reversed sequence of Bac2A), the unrelated negative-control peptide, or, as additional controls, only cellulose, or only bacteria (FIG. 2).
As a control, the negative control (unrelated) peptide Bac429 and parent peptide Bac2A (=Bac001) were used in several different wells of the microtiter plate. Luminescence (relative light units; RLU) was measured at 14 different time points, 9 of which are shown. To permit comparison of the data with the free peptide data set, the result for each peptide was classified into six different groups, like the data set with the free peptides (Table 2). […] For the soluble peptides the following classes were established: […]

[2] = tested on: Pseudomonas aeruginosa strain H1001; test: Assay for the cleaved (free, soluble) peptides from cellulose support, luminescence killing assay; format: cell-based; set-up: key: 1: Peptides showing stronger killing than Bac2A at a 4 to 8-fold higher dilution; Peptides showing stronger killing compared to that of Bac2A at a 4-fold higher dilution; 3: Peptides similar to Bac2A; 4: Peptides similar to Bac2A at the highest concentration but demonstrating weaker killing at a 2-fold dilution; 5: Peptides giving very weak or no killing at a 2-fold dilution; 6: Peptides with weak killing activity at the highest concentration; conditions: free (cleaved) peptides, killing relative to Bac2A
Protocol: Assay for the cleaved peptides from cellulose support. The peptides were cleaved from the dried membrane in an ammonia atmosphere overnight, resulting in free peptides with an amidated C-terminus. The free peptides contained two β-alanines at the C-terminus, in addition to being amidated due to the linker between the cellulose membrane and the peptide sequence. The peptide spots were punched out and transferred in a 96-well microtiter plate. Serial dilutions were carried out from the membrane spots. Four rows were filled with four controls including two with Bac2A and two with of an unrelated peptide. The other eight rows were used for serial dilution steps of the peptide variants. An overnight culture of Pseudomonas aeruginosa strain H1001 was diluted 1:500 using either LB media or 100 mM Tris buffer pH 7.3, 20 mM glucose and was added to the wells (100 μl/well) containing the peptide spots. In all other wells 50 μl were added. The microtiter plate was incubated for 30 min at 37° C. to release the peptides from the membrane. Subsequently, a dilution series were performed and the plate was incubated at 37° C. The luminescence produced by the ATP dependent luciferase system were detected in a time dependent manner using a Tecan Spectra Fluor plus.
as §1
Peptide synthesis on cellulose is a very effective and inexpensive way to investigate many different peptide variants for one particular activity. However, one of the problems of this technique is the low peptide density synthesized on the membrane, about 280 nmol per cm2. An average peptide spot used for the experiments presented is about 0.3 cm2. Therefore, an assay had to be developed that was sensitive enough to show activity with this amount of peptides. P. aeruginosa H1001 has a reporter system (e.g., a luciferase gene cassette) incorporated into the bacterial chromosome in the fliC gene (involved in flagellar biosynthesis) that is constitutively expressed. It will thus produce light if ATP is present. When this strain is killed, e.g. by peptides, the amount of light produced will decrease due to a decrease in ATP levels in the killed cells. This action can thus be monitored by detecting luminescence in a microtiter plate luminescence reader over time. The volume and amount of cells per well were optimized for this assay. After screening, the killing action was monitored with small amounts of the parent peptide Bac2A (2 μg/ml of free peptide).
Forty-nine scrambled peptides (Bac002-Bac050) were synthesized on the cellulose support and then cleaved by ammonia gas resulting in free peptides with an amidated C-terminus including the linker. The peptide spots were transferred to a 96-well microtiter plate and incubated for 30 min to dissociate the peptides from the cellulose. After serial dilution and addition of strain H1001, luminescence was recorded in a time dependent manner (FIG. 1). All 50 scrambled peptides were compared to Bac2A ([…]-NH2; SEQ ID NO: 1) by this assay (see Table 2). […] Further since all scrambled peptides had some activity, a sequence-specific interaction of the peptides with a receptor or target could be excluded.

Sequence	Luminescence at the given time in minutes: 0 [1] [RLU]	Luminescence at the given time in minutes: 20 [1] [RLU]	Luminescence at the given time in minutes: 40 [1] [RLU]	Luminescence at the given time in minutes: 60 [1] [RLU]	Luminescence at the given time in minutes: 80 [1] [RLU]	Luminescence at the given time in minutes: 100 [1] [RLU]	Luminescence at the given time in minutes: 120 [1] [RLU]	Luminescence at the given time in minutes: 180 [1] [RLU]	Luminescence at the given time in minutes: 240 [1] [RLU]	Activity Class bound [1]	Activity Class Soluble [2]
ARRLIVRVRVIA [Bac003]	4138	5992	3320	906	192	74	83	76	36	3 (Peptides similar to Bac2A resulting in lux values of less than 500 after 240 min.)	5
AVRAIRVLRVIR [Bac015]	4309	7112	5227	3783	2656	1785	1398	1244	1320	4 (Peptides reducing luminescence (lux) values to between 500 to 1499 after 240 min.)	3
AVRVRRRAILVI [Bac011]	4516	7019	5176	3694	2076	1222	816	494	447	3 (Peptides similar to Bac2A resulting in lux values of less than 500 after 240 min.)	4
IAARRLIRVVRV [Bac012]	4045	7171	5701	5037	4631	4418	4182	4344	5087	6 (Peptides having residual luminescence (lux) values greater than 3000 after 240 min.)	3
IARRIVAVRLRV [Bac026]	4873	6389	4439	2341	1080	518	302	201	208	3 (Peptides similar to Bac2A resulting in lux values of less than 500 after 240 min.)	3
IIRAALRRVRVV [Bac009]	3935	6553	4936	4512	3977	3488	3216	3270	3104	6 (Peptides having residual luminescence (lux) values greater than 3000 after 240 min.)	5
ILVARVIRRRVA [Bac019]	5239	7569	5731	4741	3822	3000	2373	1908	1570	5 (Peptides reducing luminescence (lux) values to between 1500 to 3000 after 240 min.)	5
ILVIVRRRARAV [Bac042]	5171	6703	4453	2128	746	244	86	49	52	3 (Peptides similar to Bac2A resulting in lux values of less than 500 after 240 min.)	3
IRARIAVRRVVL [Bac004]	3773	6547	5008	4405	3805	3125	2753	2459	2607	5 (Peptides reducing luminescence (lux) values to between 1500 to 3000 after 240 min.)	3
IRVRRLVAAVIR [Bac033]	4795	6539	4785	4155	3565	3095	2639	2613	2962	5 (Peptides reducing luminescence (lux) values to between 1500 to 3000 after 240 min.)	5
